# Data from ChEMBL document CHEMBL3046164, “A facile synthesis of some 3-cyano-1,4,6-trisubstituted-2(1H)-pyridinones and their biological evaluation as anticancer agents” (2011).
# How the values were obtained:
# Type in all cases: functional
# [1] = test system: HOP-92; test: Growth inhibition of Homo sapiens (human) HOP92 cells at 10 uM after 48 hr by SRB assay; conditions: HOP-92, 48 h, read-out: GI
# [2] = test system: CCRF-CEM; test: Growth inhibition of Homo sapiens (human) CCRF-CEM cells at 10 uM after 48 hr by SRB assay; conditions: read-out: GI
# [3] = test system: PC-3; test: Growth inhibition of Homo sapiens (human) PC3 cells at 10 uM after 48 hr by SRB assay; conditions: PC-3, 48 h, read-out: GI
# [4] = test system: RPMI-8226; test: Growth inhibition of Homo sapiens (human) RPMI8226 cells at 10 uM after 48 hr by SRB assay; conditions: RPMI-8226, 48 h, read-out: GI
# [5] = test system: K562; test: Growth inhibition of Homo sapiens (human) K562 cells at 10 uM after 48 hr by SRB assay; conditions: K562, 48 h, read-out: GI
# [6] = test system: NCI-H23; test: Growth inhibition of Homo sapiens (human) NCI-H23 cells at 10 uM after 48 hr by SRB assay; conditions: NCI-H23, 48 h, read-out: GI
# [7] = test system: MOLT-4; test: Growth inhibition of Homo sapiens (human) MOLT4 cells at 10 uM after 48 hr by SRB assay; conditions: MOLT-4, 48 h, read-out: GI
# [8] = test system: HL-60(TB); test: Growth inhibition of Homo sapiens (human) HL-60(TB) cells at 10 uM after 48 hr by SRB assay; conditions: HL-60, 48 h, read-out: GI
# [9] = test system: SF-539; test: Cytotoxicity against Homo sapiens (human) SF539 cells after 48 hr by SRB assay; conditions: SF-539, 48 h
# [10] = test system: UACC-62; test: Cytotoxicity against Homo sapiens (human) UACC62 cells after 48 hr by SRB assay; conditions: UACC-62, 48 h
# [11] = test system: RPMI-8226; test: Cytotoxicity against Homo sapiens (human) RPMI8226 cells after 48 hr by SRB assay; conditions: Homo sapiens, RPMI-8226, 48 h
# [12] = test system: UO-31; test: Cytotoxicity against Homo sapiens (human) UO31 cells after 48 hr by SRB assay; conditions: UO-31, 48 h
# [13] = test system: BT-549; test: Cytotoxicity against Homo sapiens (human) BT549 cells after 48 hr by SRB assay; conditions: BT-549, 48 h
# [14] = test system: IGROV-1; test: Cytotoxicity against Homo sapiens (human) IGROV1 cells after 48 hr by SRB assay; conditions: IGROV-1, 48 h
# [15] = test system: HCC 2998; test: Cytotoxicity against Homo sapiens (human) HCC2998 cells after 48 hr by SRB assay; conditions: HCC 2998, 48 h
# [16] = test system: HOP-92; test: Cytotoxicity against Homo sapiens (human) HOP92 cells after 48 hr by SRB assay; conditions: HOP-92, 48 h
# [17] = test system: SR; test: Cytotoxicity against Homo sapiens (human) SR cells after 48 hr by SRB assay
# [18] = test system: OVCAR-3; test: Cytotoxicity against Homo sapiens (human) OVCAR3 cells after 48 hr by SRB assay; conditions: OVCAR-3, 48 h
# [19] = test system: T47D; test: Cytotoxicity against Homo sapiens (human) T47D cells after 48 hr by SRB assay
# [20] = test system: HOP-62; test: Cytotoxicity against Homo sapiens (human) HOP62 cells after 48 hr by SRB assay; conditions: HOP-62, 48 h
# [21] = test system: EKVX; test: Cytotoxicity against Homo sapiens (human) EKVX cells after 48 hr by SRB assay
# [22] = test system: SF-268; test: Cytotoxicity against Homo sapiens (human) SF268 cells after 48 hr by SRB assay; conditions: SF-268, 48 h
# [23] = test system: MDA-MB-231; test: Cytotoxicity against Homo sapiens (human) MDA-MB-231 cells after 48 hr by SRB assay; conditions: MDA-MB-231, 48 h
# [24] = test system: A498; test: Cytotoxicity against Homo sapiens (human) A498 cells after 48 hr by SRB assay; conditions: A498, 48 h
# [25] = test system: SNB-75; test: Cytotoxicity against Homo sapiens (human) SNB75 cells after 48 hr by SRB assay; conditions: SNB-75, 48 h
# [26] = test system: HL-60(TB); test: Cytotoxicity against Homo sapiens (human) HL-60(TB) cells after 48 hr by SRB assay; conditions: HL-60, 48 h
# [27] = test system: OVCAR-4; test: Cytotoxicity against Homo sapiens (human) OVCAR4 cells after 48 hr by SRB assay; conditions: OVCAR-4, 48 h
# [28] = test system: CCRF-CEM; test: Cytotoxicity against Homo sapiens (human) CCRF-CEM cells after 48 hr by SRB assay
# [29] = test system: A498; test: Growth inhibition of Homo sapiens (human) A498 cells at 10 uM after 48 hr by SRB assay; conditions: A498, 48 h, read-out: GI
# [30] = test system: SR; test: Growth inhibition of Homo sapiens (human) SR cells at 10 uM after 48 hr by SRB assay; conditions: read-out: GI
smiles,measurement,setting,value
COc1ccc(-c2cc(-c3cccs3)n3c(C)nnc3c2C#N)cc1,inhibition of growth at 10 µM,[1],23.5%
Cn1cccc1-c1cc(-c2ccc(Br)cc2)n(Cc2ccccc2)c(=O)c1C#N,inhibition of growth at 10 µM,[2],39.5%
same,inhibition of growth at 10 µM,[3],32.5%
same,inhibition of growth at 10 µM,[1],44.7%
same,inhibition of growth at 10 µM,[4],38.2%
same,inhibition of growth at 10 µM,[5],45.4%
COc1ccc(-c2cc(-c3cccn3C)c(C#N)c(=O)n2Cc2ccccc2)cc1OC,inhibition of growth at 10 µM,[4],64.1%
CC(=O)n1c(-c2ccc(Br)cc2)cc(-c2cccn2C)c(C#N)c1=O,inhibition of growth at 10 µM,[1],24.6%
COc1ccc(-c2cc(-c3cccs3)n(S(=O)(=O)c3ccccc3)c(=O)c2C#N)cc1,inhibition of growth at 10 µM,[2],56.2%
same,inhibition of growth at 10 µM,[6],20%
same,inhibition of growth at 10 µM,[7],28.1%
same,inhibition of growth at 10 µM,[8],55%
same,inhibition of growth at 10 µM,[1],21.3%
same,inhibition of growth at 10 µM,[4],22%
same,inhibition of growth at 10 µM,[5],27.7%
COc1ccc(-c2cc(-c3cccs3)n(N=O)c(=O)c2C#N)cc1,inhibition of growth at 10 µM,[2],42%
same,inhibition of growth at 10 µM,[1],36.2%
same,inhibition of growth at 10 µM,[5],65.8%
Cn1cccc1-c1cc(-c2ccc(Br)cc2)[nH]c(=O)c1C#N,GI50,[9],89.1 µM
same,GI50,[10],48.9 µM
same,GI50,[11],57.5 µM
same,GI50,[12],69.2 µM
same,GI50,[13],85.1 µM
same,GI50,[14],77.6 µM
same,GI50,[15],> 100 µM
same,GI50,[16],> 100 µM
same,GI50,[17],> 100 µM
same,GI50,[18],85.1 µM
same,GI50,[19],> 100 µM
same,GI50,[20],34.7 µM
same,GI50,[21],27.5 µM
same,GI50,[22],> 100 µM
same,GI50,[23],83.2 µM
same,GI50,[24],54.9 µM
same,GI50,[25],25.7 µM
same,GI50,[26],> 100 µM
same,GI50,[27],> 100 µM
same,GI50,[28],47.3 µM
COc1ccc(-c2cc(-c3cccn3C)c(C#N)c(=O)n2C(C)=O)cc1OC,inhibition of growth at 10 µM,[5],25.3%
COc1ccc(-c2cc(-c3cccs3)[nH]c(=O)c2C#N)cc1,GI50,[9],> 100 µM
same,GI50,[10],> 100 µM
same,GI50,[11],22.4 µM
same,GI50,[12],> 100 µM
same,GI50,[13],> 100 µM
same,GI50,[14],> 100 µM
same,GI50,[15],> 100 µM
same,GI50,[16],> 100 µM
same,GI50,[17],60.2 µM
same,GI50,[18],> 100 µM
same,GI50,[19],> 100 µM
same,GI50,[20],> 100 µM
same,GI50,[21],> 100 µM
same,GI50,[22],> 100 µM
same,GI50,[23],> 100 µM
same,GI50,[24],> 100 µM
same,GI50,[25],39.8 µM
same,GI50,[26],45.7 µM
same,GI50,[27],69.2 µM
same,GI50,[28],23.4 µM
CCn1c(-c2ccc(OC)c(OC)c2)cc(-c2cccn2C)c(C#N)c1=O,inhibition of growth at 10 µM,[29],44%
same,inhibition of growth at 10 µM,[2],43.7%
same,inhibition of growth at 10 µM,[1],29%
same,inhibition of growth at 10 µM,[5],63.5%
COc1ccc(-c2cc(-c3cccn3C)c(C#N)c(=O)[nH]2)cc1OC,GI50,[9],67.6 µM
same,GI50,[10],66.1 µM
same,GI50,[11],22.9 µM
same,GI50,[12],85.1 µM
same,GI50,[13],> 100 µM
same,GI50,[14],91.2 µM
same,GI50,[15],89.1 µM
same,GI50,[16],> 100 µM
same,GI50,[17],0.48 µM
same,GI50,[18],> 100 µM
same,GI50,[19],34.7 µM
same,GI50,[20],30.9 µM
same,GI50,[21],0.05 µM
same,TGI,[21],9.77 µM
same,GI50,[22],> 100 µM
same,GI50,[23],> 100 µM
same,GI50,[24],56.2 µM
same,GI50,[25],23.9 µM
same,GI50,[26],> 100 µM
same,GI50,[27],> 100 µM
same,GI50,[28],5.01 µM
Cc1nnc2c(C#N)c(-c3cccn3C)cc(-c3ccc(Br)cc3)n12,inhibition of growth at 10 µM,[2],66%
same,inhibition of growth at 10 µM,[3],24%
same,inhibition of growth at 10 µM,[1],30%
same,inhibition of growth at 10 µM,[4],43.2%
Cn1cccc1-c1cc(-c2ccc(Br)cc2)n(S(=O)(=O)c2ccccc2)c(=O)c1C#N,inhibition of growth at 10 µM,[2],55.9%
same,inhibition of growth at 10 µM,[6],22.2%
same,inhibition of growth at 10 µM,[7],26.6%
same,inhibition of growth at 10 µM,[8],59.7%
same,inhibition of growth at 10 µM,[1],26%
same,inhibition of growth at 10 µM,[5],22.5%
COc1ccc(-c2cc(-c3cccn3C)c(C#N)c(=O)n2N=O)cc1OC,inhibition of growth at 10 µM,[1],26.8%
same,inhibition of growth at 10 µM,[5],26.6%
COc1ccc(-c2cc(-c3cccn3C)c(C#N)c(=O)n2C=O)cc1OC,inhibition of growth at 10 µM,[2],47.1%
same,inhibition of growth at 10 µM,[7],28.5%
same,inhibition of growth at 10 µM,[8],57.1%
same,inhibition of growth at 10 µM,[5],21.4%
COc1ccc(-c2cc(-c3cccs3)n(C(C)=O)c(=O)c2C#N)cc1,inhibition of growth at 10 µM,[30],30.5%
same,inhibition of growth at 10 µM,[1],29.6%
